Test results: US20170306047A1, “PHARMACEUTICAL COMPOSITION FOR CANCER PREVENTION AND TREATMENT, CONTAINING NDRG3 EXPRESSION OR ACTIVITY INHIBITOR AS ACTIVE INGREDIENT, OR NDRG3 PROTEIN-SPECIFIC ANTIBODY AND USE THEREOF” (KOREA RESEARCH INSTITUTE OF BIOSCIENCE AND BIOTECHNOLOGY, priority 2014, published 2017)
Where a SMILES comes first, the peptide text is derived from it. The star is where a group is joined. Cbz = O=C(OCc1ccccc1)*

Key:
[1] = test system: NDRG3 protein in Huh-1 cells; test: NDRG3 accumulation after inhibition of lactate generation, Western blotting, Huh-1 cells; type: cell-based; settings: 40 mM, light hypoxic condition
Procedure: (§1) Also, to check an effect of the inhibition of the lactate generation on expression of the ectopic variant NDRG3 (N66D) protein under a sustained hypoxic condition, Huh-1 cells and the NDRG3 (N66D) variant-overexpressing Huh-1 cells were untreated or treated with 40 mM sodium oxamate, statically cultured by time under a light hypoxic condition, and then collected and lysed, as described in Example 3. Thereafter, the cell lysate was subjected to Western blotting using anti-NDRG3 and anti-β-actin antibodies (FIG. 17E).

[2] = test system: human umbilical vein endothelial cells (HUVEC); test: Tube forming assay, culture broth of NDRG3 (N66D) variant-overexpressing Huh-1 cells; type: cell-based; settings: ectopic NDRG3 (N66D) variant overexpressed, 24 hours, hypoxic condition (1% O2)
Procedure: (§2) Specifically, a tube forming assay was performed to check a change in angiogenesis activity by the NDRG3 deletion. First, the Huh-7 cells (2×10^5 cells/ml) in which the expression of the NDRG3 was inhibited using shNDRG3 according to the method described in Example 4-4, and the control Huh-7 cells were cultured for 24 hours under a hypoxic condition (1% O2), and a culture broth (1 ml) was recovered, and then cultured with human umbilical vein endothelial cells (HUVEC; 1×10^5 cells/ml) for 6 to 12 hours in a 6-well dish previously coated with Matrigel to observe formation of tubes (FIG. 13A).
(§3) Specifically, Huh-1 cells in which the NDRG3 (N66D) variant was overexpressed were prepared, and the control cells and the NDRG3 (N66D) variant-overexpressing Huh-1 cells were untreated or treated with sodium oxamate, statically cultured for 24 hours under a hypoxic condition (1% O2). Thereafter, the cells were collected, as described in Example 6-2, and then subjected to a tube forming assay (FIG. 18).

[3] = test system: NDRG3 (N66D) variant-overexpressing Huh-1 cells; test: MTT assay of cell growth, NDRG3 (N66D) variant-overexpressing Huh-1 cells; type: cell-based; settings: ectopic NDRG3 (N66D) variant overexpressed, light hypoxic condition (3% O2)
Procedure: (§4) Specifically, to check the cell growth in response to the NDRG3 deletion, an MTT assay was performed. First, the NDRG3-deleted Huh-1 cells prepared by the method disclosed in Example 6-1, and the control Huh-1 cells was seeded at a density of 2,000 cells/well in a 96-well plate, and then cultured at 37° C. in a 5% CO2 incubator under a hypoxic condition (3% O2) over time. Thereafter, the cells were treated with a 1 mg/ml MTT solution diluted with PBS, and reacted for 2 hours. Then, a medium containing the MTT was removed, and the cells were treated with 100 μl of DMSO to dissolve MTT formazan crystals. Subsequently, an optical density of the cell suspension was measured at a wavelength of 570 nm using a spectrophotometer (FIG. 14A).
(§5) Specifically, to check an effect of the ectopic NDRG3 (N66D) variant on the cell growth after inhibition of the lactate generation, Huh-1 cells were transfected with an ectopic variant NDRG3 (N66D) expression vector, as described in Example 4-3. Then, the Huh-1 cells and the NDRG3 (N66D) variant-overexpressing Huh-1 cells were seeded at a density of 1,000 cells/well in a 96-well plate, treated with a varying concentration of sodium oxamate, statically cultured by time under a light hypoxic condition (3% O2). Thereafter, to check the cell growth, an MTT assay was performed, as described in Example 6-3, and plotted in a graph (FIG. 17A).

[4] = test system: human umbilical vein endothelial cells (HUVEC); test: Tube forming assay, culture broth of Huh-1 cells; type: cell-based; settings: control Huh-1 cells, 24 hours, hypoxic condition (1% O2)
Procedure: as §2, §3

[5] = test system: NDRG3 protein in MCF-7 cells; test: NDRG3 protein accumulation after inhibition of L-lactate generation, MCF-7 cells; type: cell-based; settings: varying concentration, 24 hours, hypoxic condition (1% O2)
Procedure: Also, to check an effect of inhibition of the L-lactate generation on expression of the NDRG3 protein, MCF-7 cells were treated with a varying concentration of sodium oxamate that was a lactate dehydrogenase A (LDHA) inhibitor, statically cultured for 24 hours under a hypoxic condition (1% O2), as described in Example 5-2, and then collected and lysed, as described in Example 3. Thereafter, the cell lysate was subjected to Western blotting using anti-NDRG3, anti-HIF-1α and anti-β-actin antibodies, as described above, and L-lactate generation was determined, and then plotted in a graph. The values were normalized to the L-lactate standard curve (FIG. 15B).

[6] = test system: Huh-1 cells; test: MTT assay of cell growth, Huh-1 cells; type: cell-based; settings: varying concentration, light hypoxic condition (3% O2)
Procedure: as §4, §5

[7] = test system: NDRG3 (N66D) variant in Huh-1 cells; test: NDRG3 variant accumulation after inhibition of lactate generation, NDRG3 (N66D)-overexpressing Huh-1 cells; type: cell-based; settings: ectopic NDRG3 (N66D) variant overexpressed, 40 mM, light hypoxic condition
Procedure: as §1

[8] = test system: NDRG3 protein in NDRG3-overexpressing HeLa cells; test: In vivo ubiquitination assay of NDRG3 under proteasome inhibition; type: cell-based; settings: 20 μM for 8 hours, normoxic condition
Procedure: Specifically, a vector for transfection (an MSCV retroviral system) was constructed using a full-length NDRG3 cDNA (SEQ ID NO: 1) and a pMSCVneo retroviral vector (Clontech). To construct the viral vector, a GP293 cell line was transfected using lipofectamine (Invitrogen). After 48 hours, HeLa cells were treated with a cell supernatant containing NDRG3-retroviruses or control-retroviruses together with 6 μg/ml of polybrene for 24 hours. Then, the cells in which the NDRG3 was overexpressed were untreated or treated with 20 μM MG132 for 8 hours, and then collected. The collected cells were subjected to Western blotting using an anti-NDRG3 antibody and an anti-β-actin antibody (FIG. 7A).
Also, to determine ubiquitination of NDRG3 under a normoxic condition, an in vivo ubiquitination assay was performed. First, a vector for transfection was constructed using shNDRG3 (Sigma-Aldrich, SEQ ID NO: 4) and a lentiviral vector to inhibit expression of the NDRG3. To construct the viral vector, a packing cell line was transfected as described above. Thereafter, HeLa cells were treated with a cell supernatant containing the NDRG3 shRNA-expressing lentiviruses together with 6 μg/ml of polybrene, and kept in a DMEM medium supplemented with 10% FBS. […]

[9] = biological target: T1, recombinant GST-NDRG3 (G138W) variant protein (Homo sapiens, UniProt Q9UGV2, G138W); test: In vitro binding assay with L-[14C]-lactate, NDRG3 (G138W) variant; settings: 50 μg GST-NDRG3 (G138W) versus GST-NDRG3
T1 construct: made in house; host or cells: E. coli BL21
T1 sequence (Q9UGV2 whole entry G138W): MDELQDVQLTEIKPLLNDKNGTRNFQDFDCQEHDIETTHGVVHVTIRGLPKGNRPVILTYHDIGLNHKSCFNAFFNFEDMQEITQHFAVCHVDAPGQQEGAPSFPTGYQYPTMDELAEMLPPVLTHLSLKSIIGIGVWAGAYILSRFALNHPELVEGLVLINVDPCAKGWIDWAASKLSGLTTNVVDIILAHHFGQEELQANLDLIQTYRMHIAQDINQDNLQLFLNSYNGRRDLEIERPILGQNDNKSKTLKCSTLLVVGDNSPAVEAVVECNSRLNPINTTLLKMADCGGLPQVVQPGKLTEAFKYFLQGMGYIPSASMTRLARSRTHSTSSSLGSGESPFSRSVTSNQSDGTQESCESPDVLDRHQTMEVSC
Procedure: Specifically, to confirm interaction between L-lactate and the NDRG3 protein, a site-directed mutation was performed, as described in Example 4-3, using the pGEX-4T-2-NDRG3, which was cloned by the method disclosed in Example 4-1, as a template, and primers listed in the following Table 4, thereby obtaining a pGEX-4T-2-NDRG3 (G138W) variant construct in which glycine (G) that was an amino acid at position 138 among the L-lactate binding sites of the NDRG3 was substituted with […]. […]
Also, to confirm interaction between L-lactate and the NDRG3 protein, an in vitro binding assay was performed. […] Subsequently, the NDRG3-bound agarose resin was transferred to a scintillation solution containing 2 ml of an LSC-cocktail (PerkinElmer), and ^14C values were measured, and plotted in a graph (Left panel of FIG. 16B). Also, GST, the recombinant GST-NDRG3 protein (50 μg) or the recombinant GST-NDRG3 (G138W) variant protein (50 μg) was reacted with 0.5 μCi of L-[^14C]-lactate (PerkinElmer) at 30° C. for an hour, and ^14C values were then measured in the same manner as described above, and plotted in a graph (Right panel of FIG. 16B).

[10] = biological target: T2, recombinant human NDRG3-GST (Homo sapiens, UniProt Q9UGV2); test: In vitro ubiquitination assay of recombinant NDRG3 by PHD2/VHL complex; type: biochemical; settings: L-lactate pH 7.0, 20 mM
T2 construct: made in house; host or cells: E. coli BL21 (NDRG3-GST); HEK293T immunoprecipitates (PHD2, VHL)
T2 sequence (Q9UGV2 whole entry): as the sequence (Q9UGV2 whole entry G138W) above, with W138G counted along it
Procedure: Further, to check an effect of lactate generation on ubiquitination of the NDRG3, an in vitro ubiquitination assay was performed. First, HEK293T cells were transfected with the Flag-tagged PHD2 and HA-tagged VHL variants, as described in Example 3, collected, and then lysed. Thereafter, the protein lysate (500 μg) was reacted with an anti-HA affinity gel (Sigma) or an anti-Flag affinity gel (Sigma) at 4° C. for a day, and centrifuged to obtain recombinant PHD2 proteins or VHL proteins. Then, the recombinant PHD2-/VHL-binding proteins were untreated or treated with L-lactate (pH 7.0, 20 mM), and then reacted at 37° C. for an hour in 50 μl of a solution including recombinant human NDRG3-GST (4 μg) prepared by the method described in Example 4-1, 500 ng of a ubiquitin-activating enzyme (E1, Upstate), 1 μg of a ubiquitin-conjugating enzyme (E2 (UbcH5a), Upstate), 2.5 μg of ubiquitin-Flag (Sigma), 20 mM HEPES (pH 7.3), 5 mM MgCl2, 1 mM DTT, and 2 mM ATP. Subsequently, the mixture was incubated with a GST-conjugated agarose resin at 4° C. for 4 hours, and the precipitate was washed, and subjected to Western blotting using an anti-Flag antibody, as described in Example 3 (FIG. 15F).

[11] = biological target: T3, recombinant GST-NDRG3 protein (Homo sapiens, UniProt Q9UGV2); test: In vitro binding assay with L-[14C]-lactate, wild-type NDRG3; settings: 50 μg GST-NDRG3 versus GST, 30° C., one hour
T3 construct: made in house; host or cells: E. coli BL21
T3 sequence (Q9UGV2 whole entry): as the sequence (Q9UGV2 whole entry G138W) above, with W138G counted along it
Procedure: Also, to confirm interaction between L-lactate and the NDRG3 protein, an in vitro binding assay was performed. GST or the recombinant GST-NDRG3 protein (50 μg) was reacted with 0.5 μCi of unlabeled L-lactate (pH 7.0, Sigma) and L-[^14C]-lactate (PerkinElmer) at 30° C. for an hour. Thereafter, a GST-conjugated agarose resin was added thereto, and the resulting mixture was reacted for 4 hours. Then, a resin to which the NDRG3-GST protein was bound was separated from the reaction mixture, and impurities were removed using PBS. Subsequently, the NDRG3-bound agarose resin was transferred to a scintillation solution containing 2 ml of an LSC-cocktail (PerkinElmer), and ^14C values were measured, and plotted in a graph (Left panel of FIG. 16B). Also, GST, the recombinant GST-NDRG3 protein (50 μg) or the recombinant GST-NDRG3 (G138W) variant protein (50 μg) was reacted with 0.5 μCi of L-[^14C]-lactate (PerkinElmer) at 30° C. for an hour, and ^14C values were then measured in the same manner as described above, and plotted in a graph (Right panel of FIG. 16B).

[12] = test system: NDRG3 protein in MCF-7 cells; test: NDRG3 protein expression after inhibition of glycolysis, MCF-7 cells; type: cell-based; settings: varying concentration, 24 hours, hypoxic condition (1% O2)
Procedure: Additionally, to check an effect of inhibition of glycolysis on expression of the NDRG3 protein, MCF-7 cells were treated with a varying concentration of 2-deoxyglucose (2-DG) inhibiting the glycolysis, statically cultured for 24 hours under a hypoxic condition (1% O2), as described in Example 5-2, and then collected and lysed, as described in Example 3. Thereafter, the MCF-7 cells were subjected to Western blotting using anti-NDRG3 and anti-β-actin antibodies (FIG. 15D).

[13] = test system: NDRG3 protein in HeLa cells; test: NDRG3 protein expression after PHD2 inhibition, Western blotting, HeLa cells; type: cell-based; settings: varying concentration, 24 hours, normoxic condition (21% O2)
Procedure: (§6) Also, to determine the functional relationship between PHD2 and NDRG3, MCF-7 cells (FIG. 4B) or HeLa cells (FIG. 4C) were treated with a varying concentration of desferrioxamine (DFX), which was a PHD2 inhibitor, for 24 hours under a normoxic condition (21% O2), and then lysed, as described in Example 3. The cell lysate was subjected to Western blotting using anti-NDRG3, anti-HIF-1α, and anti-β-actin (FIGS. 4B and 4C).

[14] = test system: NDRG3 protein in MCF-7 cells; test: NDRG3 protein expression after PHD2 inhibition, Western blotting, MCF-7 cells; type: cell-based; settings: varying concentration, 24 hours, normoxic condition (21% O2)
Procedure: as §6

## NC(=O)C(=O)[O-].[Na+] [sodium oxamate]
[1]
  accumulation of NDRG3: inhibited
[2]
  angiogenesis (tube formation): increased again
[3]
  cell growth (MTT): increased
[4]
  angiogenesis (tube formation): inhibited
[5]
  accumulation of NDRG3 protein: inhibited in proportion to the lactate expression
[6]
  cell growth (MTT): inhibited in a concentration-dependent manner
[7]
  accumulation of NDRG3 variant: lasted

## CC(C)C[C@@H](C=O)NC(=O)[C@H](CC(C)C)NC(=O)[C@H](CC(C)C)NC(=O)OCc1ccccc1 [MG132] (Cbz-Leu-Leu-Leu-aldehyde)
[8]
  ubiquitination of NDRG3 protein: actively ubiquitinated

## C[C@H](O)C(=O)O [lactate, L-lactate]
[9]
  lactate-binding affinity of NDRG3 variant protein (14C values): reduced
[10]
  ubiquitination of recombinant NDRG3 protein by PHD2/VHL complex: reduced
[11]
  in vitro binding of recombinant NDRG3 protein to lactate (14C values): increased

## O=CC[C@@H](O)[C@H](O)[C@H](O)CO [2-deoxyglucose]
[12]
  expression of NDRG3 protein: reduced

## CC(=O)N(O)CCCCCNC(=O)CCC(=O)N(O)CCCCCNC(=O)CCC(=O)N(O)CCCCCN [DFX, desferrioxamine]
[13]
  expression of NDRG3 protein: increasingly expressed
[14]
  expression of NDRG3 protein: increasingly expressed
